In patent US4912092A, “Methods for increasing extracellular adenosine and for stabilizing mast cells” (The Regents of the University of California, priority 1987, dated 1990):

Experiments:
AMP deaminase = molecular target: T1, AMP deaminase (Homo sapiens, UniProt Q01433); test: Inhibition of AMP deaminase (14C-AMP to 14C-IMP conversion); format: biochemical
T1 construct: endogenous in cells
T1 sequence (Q01433 1-825): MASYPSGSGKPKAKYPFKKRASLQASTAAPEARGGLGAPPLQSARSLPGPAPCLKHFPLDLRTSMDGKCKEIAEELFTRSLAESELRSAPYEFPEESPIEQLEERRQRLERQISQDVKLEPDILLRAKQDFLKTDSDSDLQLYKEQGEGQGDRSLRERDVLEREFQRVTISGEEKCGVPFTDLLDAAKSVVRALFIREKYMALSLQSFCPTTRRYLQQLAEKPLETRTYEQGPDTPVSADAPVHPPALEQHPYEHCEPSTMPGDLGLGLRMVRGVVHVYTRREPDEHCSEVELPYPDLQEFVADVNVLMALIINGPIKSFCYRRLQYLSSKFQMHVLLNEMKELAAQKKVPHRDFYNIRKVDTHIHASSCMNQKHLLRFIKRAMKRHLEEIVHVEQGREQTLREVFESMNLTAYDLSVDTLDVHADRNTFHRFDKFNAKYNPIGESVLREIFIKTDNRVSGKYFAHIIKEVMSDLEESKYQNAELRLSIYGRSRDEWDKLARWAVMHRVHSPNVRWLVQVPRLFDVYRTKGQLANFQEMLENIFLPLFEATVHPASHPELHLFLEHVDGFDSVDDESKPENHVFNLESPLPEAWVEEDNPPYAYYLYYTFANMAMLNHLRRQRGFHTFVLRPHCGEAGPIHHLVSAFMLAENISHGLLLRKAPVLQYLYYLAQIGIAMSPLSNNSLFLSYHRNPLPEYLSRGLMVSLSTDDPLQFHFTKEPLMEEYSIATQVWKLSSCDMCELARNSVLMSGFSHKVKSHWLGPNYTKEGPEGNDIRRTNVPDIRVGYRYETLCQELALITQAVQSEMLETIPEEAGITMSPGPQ
Description: The phosphorylated forms are referred to as AICA ribotide and ribavirin monophosphate, respectively. Using 200 μM of each ribotide, AMP deaminase was inhibited 38% and 54%, respectively.

[1] = tested on: granulocytes and endothelial cells; test: Granulocyte/endothelial cell interaction, intravital microscopy of mesentery microvessels; format: in vivo, rat; settings: superfusion with 20 μM, approximately 2 μM in the vessel
Description: The parameter measured was the fracture stress between the two cell types.
These studies were performed by intravital microscopy filming of granulocytes in rat mesentary microvessels. The rolling velocity of granulocytes compared to the streaming velocity of red cells was calculated before and after the administration of adenosine.

[2] = tested on: human splenic lymphoblast cell line (WI-L2); test: Adenosine excretion by human lymphoblasts during ATP breakdown (2-deoxyglucose); format: cell-based; settings: three-hour preincubation and four-hour incubation during 2-deoxyglucose treatment (FIGS. 8, 9)
Description: (§1) The history and properties of the cell line have been described by Hershfield et al. in Science, Vol. 197, p. 1284, 1977.
(§2) Catabolism of cellular ATP stores was stimulated by adding either 2-deoxyglucose or a calcium ionophore. At various times, the amount of adenosine released by the cells into the supernatant, or the amount of nucleotides remaining in the cells, was determined by mixing 30 μl of chilled 4.4N perchloric acid with 300 μl of supernatants, or by adding 300 μl of chilled 0.4N perchloric acid to the cells collected as pellets and centrifuging the mixtures at 500×G for 10 minutes at 4° C. […] 1245, 1975. Following centrifugation at 1500×G for three minutes at 4° C., the aqueous phase is removed and frozen at -20° C. until assayed for adenosine, inosine, or for nucleotides. Adenosine was evaluated isocratically on a C-18 microBondapak reverse phase column equilibrated with 4 millimolar potassium phosphate, (pH 3.4):acetonitrile 60% in water (95:5 v/v) buffer. Adenosine elutes at 8-10 minutes, and its identity was confirmed by its sensitivity to adenosine deaminase and by spiking with adenosine standards. The extracted samples from the cell pellet were analyzed for nucleotides by high pressure liquid chromatography on a Whatman Partisil-10 (SAX) column equilibrated with 10 millimolar potassium phosphate, pH 3.78, and eluted with a linear gradient to a 0.25 molar potassium phosphate, 0.5 molar KCl, pH 3.45. […] Peaks were quantitated by comparison with high pressure liquid chromatography analysis of suitable standards.
Cells were grown to about 0.5×10^6 cells/ml (mid-log phase) in FIG. 2 and to about 1.0×10^6 cells/ml (early stationary phase) in FIGS. 7-9.

[3] = tested on: HPRT- neuroblastoma cells; test: Adenosine excretion by ionophore-stimulated HPRT- neuroblastoma cells; format: cell-based; settings: pretreatment
Description: as §1, §2
To induce ATP catabolism, the growth medium was replaced by medium containing micromolar amounts of the calcium ionophore A23187 and 1.0 μM deoxycoformycin.

[4] = tested on: Mouse bone marrow-derived mast cells; format: cell-based
Description: By preventing mast cell degranulation, it is possible to prevent or control a patient's allergic response. Bone marrow obtained from Balb/C mice femurs was cultured in a 1:1 mixture of Razin media and conditioned media, produced by co-culturing splenocytes from C57B1/6J and C3H mice in the presence of Concanavalin A as described by Razin et al. in the Proc. Natl. Acad. Sci. USA 28: 2559-2561, 1981. After weekly passaging and at least 15 days in tissue culture, the resulting cells were 90% pure mast cells and 95% viable as assessed by Trypan blue exclusion. Cells exposed to ribavirin in culture were washed three times prior to use in experiments. Parallel cultures of cells grown in media alone were used as controls for pharmacologically manipulated mast cells. Cell growth was assessed by counting cells at particular time points and comparing actual numbers of ribavirin-treated cells to numbers of cells grown in media alone.
β-hexosaminidase was chosen as a representative granule-associated, preformed mast cell mediator because it is easily quantitated, and its release nearly identically parallels that of histamine. Mouse bone marrow-derived mast cells were centrifuged at 200×g for 5 minutes, washed three times in Tyrode's buffer lacking divalent cations, sensitized for 30 minutes at 37° C. with anti-DNP ([…]) IgE (1 μg/10^6 cells) and challenged with either DNP-BSA antigen (175 ng/3×10^5 cells) or A23187 (10 μg/ml/3×10^5 cells) in 400 μl of complete Tyrode's buffer for 10 minutes at 37° C. Reaction mixtures were centrifuged at 200×g for 10 minutes, and supernatant and pellet β-hexosaminidase concentrations were assayed by the hydrolysis of p-nitrophenyl-β-D-glucosamide as described in Schwartz et al. in J. Immunol. […] Spontaneous β-hexosaminidase release was determined in unchallenged cells. The net % of β-hexosaminidase released is defined as follows: [formula] where [β-hex] is β-hexosaminidase and super. is supernatant. When exogenous adenosine was present in reaction mixtures, it was added simultaneously with the secretagogue.

NC(=O)c1ncn([C@@H]2O[C@H](COP(=O)(O)O)[C@@H](O)[C@H]2O)c1N [AICA ribotide]
inhibition at 200 µM (AMP deaminase; read-out: AMP deaminase inhibited): 38%

Nc1ncnc2c1ncn2[C@@H]1O[C@H](CO)[C@@H](O)[C@H]1O [Adenosine, 9-β-D-ribofuranosyladenine]
decrease of fracture stress between granulocytes and endothelial cells [1]: by a factor of two
rolling velocity of granulocytes in microvessels [1]: twofold increase

NC(=O)c1ncn([C@@H]2O[C@H](COP(=O)(O)O)[C@@H](O)[C@H]2O)n1 [ribavirin monophosphate]
AMP deaminase inhibited (AMP deaminase; 200 μM ribotide, cytoplasmic lysates from a human lymphoblast line): 54%

NC(=O)c1ncn([C@@H]2O[C@H](CO)[C@@H](O)[C@H]2O)n1 [ribavirin, 1-β-D-ribofuranosyl-1H-1,2,4-triazole-3-carboxamide]
adenosine release from lymphoblasts [2]: increased adenosine release
correction of the twofold lower adenosine secretion of HPRT-deficient cells [3]: can be corrected by pretreatment
mast cell mediator content and cell viability [4]: did not alter
preformed mediator release ([4]; 1 μM for six days): inhibits mediator release significantly
β-hexosaminidase release ([4]; 10 μM added at the time of mast cell stimulation): does not affect
net β-hexosaminidase release versus controls ([4]; 1, 10, or 20 μM for six days, A23187 challenge (FIG. 11)): significantly less
β-hexosaminidase release versus cells cultured in media alone ([4]; three to seven days in 10 μM, washed, A23187 challenge (FIG. 10), p<0.05): marked attenuation
spontaneous release of β-hexosaminidase versus control cells ([4]; unchallenged cells): similar
